Laboratory results published in the supplement of paper PMC5908809.

How the values were obtained:
[1] = system: normal NK cells expanded with K562-aAPC; test: percent inhibition of viability; higher = more inhibition; details: 72 h, IL-2 2.5 ng/mL
Protocol: (§1)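 Drug sensitivity and resistance testing on K562-aAPC-expanded normal NK cells: 5 concentrations (10-fold steps over a 10,000-fold range), 72 h at 37 °C, viability by CellTiter-Glo normalised to DMSO and benzethonium chloride controls; DSS from the fitted curve.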

DERL-7 (IL-2 2.5 ng/mL) [2] = test: as above; details: 72 h
IMC-1 (IL-2 20 ng/mL) [3] = test: as above; details: 72 h
KAI3 (IL-2 2.5 ng/mL) [4] = test: as above; details: 72 h
KHYG-1 (IL-2 2.5 ng/mL) [5] = test: as above; details: 72 h
NK-92 (IL-2 2.5 ng/mL) [6] = test: as above; details: 72 h
NK-YS (IL-2 2.5 ng/mL) [7] = test: as above; details: 72 h
NKL (IL-2 2.5 ng/mL) [8] = test: as above; details: 72 h
SNK-6 (IL-2 2.5 ng/mL) [9] = test: as above; details: 72 h
YT (IL-2 2.5 ng/mL) [10] = test: as above; details: 72 h
[11] = system: normal primary NK cells, pool 1 (3 donors) (IL-2 2.5 ng/mL); test: as above; details: 72 h
[12] = system: normal primary NK cells, pool 1 (3 donors), resting (IL-2 0 ng/mL); test: as above; details: 72 h
[13] = system: normal primary NK cells, pool 2 (3 donors) (IL-2 2.5 ng/mL); test: as above; details: 72 h
[14] = system: normal primary NK cells, pool 3 (3 donors) (IL-2 2.5 ng/mL); test: as above; details: 72 h
[15] = system: normal NK cells expanded with K562-aAPC; test: drug sensitivity score (DSS) (DSS units); higher = more sensitive; extreme values may be limits of the assay; details: 72 h; IL-2 2.5 ng/mL
Protocol: as §1

DERL-7 (IL-2 2.5 ng/mL) [16] = test: as above; details: 72 h
IMC-1 (IL-2 20 ng/mL) [17] = test: as above; details: 72 h
KAI3 (IL-2 2.5 ng/mL) [18] = test: as above; details: 72 h
KHYG-1 (IL-2 2.5 ng/mL) [19] = test: as above; details: 72 h
NK-92 (IL-2 2.5 ng/mL) [20] = test: as above; details: 72 h
NK-YS (IL-2 2.5 ng/mL) [21] = test: as above; details: 72 h
NKL (IL-2 2.5 ng/mL) [22] = test: as above; details: 72 h
SNK-6 (IL-2 2.5 ng/mL) [23] = test: as above; details: 72 h
YT (IL-2 2.5 ng/mL) [24] = test: as above; details: 72 h
[25] = system: normal primary NK cells, pool 1 (3 donors) (IL-2 2.5 ng/mL); test: as above; details: 72 h
[26] = system: normal primary NK cells, pool 1 (3 donors), resting (IL-2 0 ng/mL); test: as above; details: 72 h
[27] = system: normal primary NK cells, pool 2 (3 donors) (IL-2 2.5 ng/mL); test: as above; details: 72 h
[28] = system: normal primary NK cells, pool 3 (3 donors) (IL-2 2.5 ng/mL); test: as above; details: 72 h

CCn1c(C(=O)N(C2CC2)C2CC2)cc2c3c(ncn3C)c(Nc3cc(C)n(C)n3)nc21 (max concentration tested 10000 nM)
percent inhibition of viability [%]
Details | 1 nM | 10 nM | 100 nM | 1000 nM | 10000 nM
DERL-7 (IL-2 2.5 ng/mL) [2] | 0.43 | 0.75 | 1.97 | 12.3 | 54.1
IMC-1 (IL-2 20 ng/mL) [3] | -1.17 | 2.69 | 0.12 | -11.6 | -7.89
KAI3 (IL-2 2.5 ng/mL) [4] | 14.1 | 21.2 | 27.8 | 44.8 | 76.3
KHYG-1 (IL-2 2.5 ng/mL) [5] | 4.48 | 5.02 | 4.17 | 12.6 | 69.7
NK-92 (IL-2 2.5 ng/mL) [6] | 4.07 | 7.86 | -2 | 9.2 | 60.7
NK-YS (IL-2 2.5 ng/mL) [7] | 4.8 | 6.33 | 4.46 | 16.1 | 36.6
NKL (IL-2 2.5 ng/mL) [8] | 0.96 | -1.04 | 3.26 | 41.2 | 70.4
SNK-6 (IL-2 2.5 ng/mL) [9] | -4.81 | 22.8 | -3.45 | -16.6 | 7.74
YT (IL-2 2.5 ng/mL) [10] | 9.25 | 9.54 | 7.25 | 14.5 | 46.5
[1] | 5.29 | 4.9 | 4.54 | 16 | 63.8
[11] | -3.85 | -1.69 | -6.9 | 11.7 | 41.6
[12] | -6.63 | -4.84 | -10.8 | 4.13 | 5.86
[13] | -2.38 | -1.43 | 0.57 | 3.6 | 49
[14] | 5.51 | -1.86 | 3.33 | 6.54 | 30.7

Details | drug sensitivity score
DERL-7 (IL-2 2.5 ng/mL) [16] | 4.87
IMC-1 (IL-2 20 ng/mL) [17] | 0
KAI3 (IL-2 2.5 ng/mL) [18] | 14.5
KHYG-1 (IL-2 2.5 ng/mL) [19] | 5.93
NK-92 (IL-2 2.5 ng/mL) [20] | 4.85
NK-YS (IL-2 2.5 ng/mL) [21] | 3.29
NKL (IL-2 2.5 ng/mL) [22] | 8.84
SNK-6 (IL-2 2.5 ng/mL) [23] | 0
YT (IL-2 2.5 ng/mL) [24] | 4.02
[15] | 5.99
[25] | 3.85
[26] | 0
[27] | 3.12
[28] | 2.38

COc1ccc2c(OCc3nnc4ccc(-c5ccccc5)nn34)ccnc2c1 [AMG-208] (max concentration tested 2500 nM)
percent inhibition of viability [%]
Details | 0.25 nM | 2.5 nM | 25 nM | 250 nM | 2500 nM
DERL-7 (IL-2 2.5 ng/mL) [2] | -3.09 | -8.21 | -1.7 | -5.84 | -4.71
IMC-1 (IL-2 20 ng/mL) [3] | -1.21 | 1.46 | 1.28 | 6.67 | 11.1
KAI3 (IL-2 2.5 ng/mL) [4] | -0.14 | -2.19 | -6.54 | 1.34 | 11.6
KHYG-1 (IL-2 2.5 ng/mL) [5] | -2.14 | 0.21 | 1.18 | 6.23 | 15.6
NK-92 (IL-2 2.5 ng/mL) [6] | 0.24 | -14.7 | -6.65 | 10.4 | 13.1
NK-YS (IL-2 2.5 ng/mL) [7] | -3.94 | -3.82 | -0.96 | 1.47 | 6.08
NKL (IL-2 2.5 ng/mL) [8] | -4.88 | -0.72 | 5.74 | 1.87 | 1.01
SNK-6 (IL-2 2.5 ng/mL) [9] | 2.2 | 11.6 | 22.9 | 28.1 | 18.8
YT (IL-2 2.5 ng/mL) [10] | 1.44 | 4.97 | 5.31 | 10 | 12.4
[1] | -4.22 | -2.93 | 1.22 | -1.02 | 9.46
[11] | 0.88 | 0.76 | 0.54 | 1.27 | 4.15
[12] | -15.8 | -2.94 | 7.27 | 3.54 | -2.41
[13] | -3.74 | -5.68 | 4.86 | 9.98 | 4.41
[14] | -8.14 | -5.89 | 5.5 | 0.46 | 5.72

Details | drug sensitivity score
DERL-7 (IL-2 2.5 ng/mL) [16] | 0.89
IMC-1 (IL-2 20 ng/mL) [17] | 0.02
KAI3 (IL-2 2.5 ng/mL) [18] | 0.07
KHYG-1 (IL-2 2.5 ng/mL) [19] | 0.59
NK-92 (IL-2 2.5 ng/mL) [20] | 0.61
NK-YS (IL-2 2.5 ng/mL) [21] | 0
NKL (IL-2 2.5 ng/mL) [22] | 0
SNK-6 (IL-2 2.5 ng/mL) [23] | 7.74
YT (IL-2 2.5 ng/mL) [24] | 0.16
[15] | 0
[25] | 0
[26] | 0
[27] | 0
[28] | 0

Cc1csc(-c2nnc(Nc3ccc(Oc4ncccc4-c4ccnc(N)n4)cc3)c3ccccc23)c1 [AMG-900] (max concentration tested 1000 nM)
percent inhibition of viability [%]
Details | 0.1 nM | 1 nM | 10 nM | 100 nM | 1000 nM
DERL-7 (IL-2 2.5 ng/mL) [2] | -3.26 | -1.85 | 31 | 70.8 | 53.9
IMC-1 (IL-2 20 ng/mL) [3] | -5.67 | -6.98 | 18.2 | 21.9 | 63.9
KAI3 (IL-2 2.5 ng/mL) [4] | -5.87 | -5.96 | 19.4 | 20.4 | 43.4
KHYG-1 (IL-2 2.5 ng/mL) [5] | -2.26 | -0.47 | 44.5 | 33.3 | 59.8
NK-92 (IL-2 2.5 ng/mL) [6] | -9.63 | -11.2 | 17.6 | 27.6 | 52.6
NK-YS (IL-2 2.5 ng/mL) [7] | -5.77 | -3.39 | 59.6 | 59.6 | 71.8
NKL (IL-2 2.5 ng/mL) [8] | -16.8 | -17.8 | -16.6 | -9.7 | -5.52
SNK-6 (IL-2 2.5 ng/mL) [9] | 15.5 | 7.4 | 68.4 | 57.2 | 72.8
YT (IL-2 2.5 ng/mL) [10] | -0.32 | -0.28 | 13 | 16 | 24.9
[1] | -2.04 | -5.9 | -2.98 | 39.7 | 33
[11] | -4.05 | -2.86 | -4.93 | -3.83 | -3.7
[12] | -1.37 | -7.12 | 5.07 | 10.8 | 11.6
[13] | -8.07 | -6.23 | -6.7 | -3.83 | -5.92
[14] | -7.42 | 4.77 | -7.75 | -0.31 | -0.94

Details | drug sensitivity score
DERL-7 (IL-2 2.5 ng/mL) [16] | 17.1
IMC-1 (IL-2 20 ng/mL) [17] | 6.18
KAI3 (IL-2 2.5 ng/mL) [18] | 5.44
KHYG-1 (IL-2 2.5 ng/mL) [19] | 12.6
NK-92 (IL-2 2.5 ng/mL) [20] | 6.74
NK-YS (IL-2 2.5 ng/mL) [21] | 20.2
NKL (IL-2 2.5 ng/mL) [22] | 0
SNK-6 (IL-2 2.5 ng/mL) [23] | 23
YT (IL-2 2.5 ng/mL) [24] | 3.19
[15] | 6.8
[25] | 0
[26] | 0.61
[27] | 0
[28] | 0
